Converted amounts (≈) assume the structure as drawn. “And” between values parts separate entries of the source, which are not always exact repeats. Equal values may be shown once. Read-outs that look alike come from different tables or passages of the source.
What was measured:
[1] = test system: M. tuberculosis H37Rv; assay: microbe, parasite or virus in culture; assay type: cell-based, Mycobacterium tuberculosis
[2] = target: T1, YbtE (Yersinia pestis, UniProt Q56950); assay: biochemical; assay type: biochemical
[3] = target: T1, YbtE; assay: biochemical
[4] = target: T1, YbtE; conditions: cited from earlier work
[5] = test system: Y. pestis KIM6-2082.1+; assay: microbe, parasite or virus in culture; assay type: cell-based, Yersinia pestis
[6] = test system: M. tuberculosis H37Rv reference strain; conditions: Wanger et al. 1996; cited from earlier work
[7] = test system: 92 Y. pestis strains; conditions: cited from earlier work
[8] = test system: MBT production in M. tuberculosis; assay type: cell-based, Mycobacterium tuberculosis
[9] = Isotopic stability in D2O (NMR); assay type: physicochemical; conditions: room temperature
[10] = Mycobacterium tuberculosis, H37RV

T1 sequence (Q56950 1-525): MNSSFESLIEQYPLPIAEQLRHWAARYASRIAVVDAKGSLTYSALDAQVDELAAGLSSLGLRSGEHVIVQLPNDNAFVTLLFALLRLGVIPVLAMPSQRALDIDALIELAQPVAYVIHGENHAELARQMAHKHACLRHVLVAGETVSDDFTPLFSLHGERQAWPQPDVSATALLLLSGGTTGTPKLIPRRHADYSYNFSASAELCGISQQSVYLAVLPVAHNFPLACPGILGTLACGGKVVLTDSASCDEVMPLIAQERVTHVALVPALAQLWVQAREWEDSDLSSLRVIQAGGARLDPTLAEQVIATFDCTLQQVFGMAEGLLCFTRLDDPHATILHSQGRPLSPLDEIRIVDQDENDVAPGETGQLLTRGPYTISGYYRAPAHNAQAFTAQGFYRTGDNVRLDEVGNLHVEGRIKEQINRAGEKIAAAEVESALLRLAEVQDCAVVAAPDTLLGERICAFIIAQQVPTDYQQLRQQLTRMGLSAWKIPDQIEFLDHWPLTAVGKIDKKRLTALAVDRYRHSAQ

Compound `CC(=O)O[C@@H]1[C@H](OC(C)=O)[C@@H](COS(=O)(=O)NC(=O)c2ccccc2O)O[C@H]1n1cnc2c(N)ncnc21` [2′,3′-diacetyl-salicyl-AMS] has an MIC90 [1, 10] of over 200 µM.

With `Nc1ncnc2c1ncn2[C@@H]1O[C@H](COS(N)(=O)=O)[C@@H](O)[C@H]1O` [AMS, 5′-O-Sulfamoyladenosine, reference compound] the inhibition of salicylation [2] was “did not inhibit salicylation”, the inhibition of adenylation [3] was “did not inhibit adenylation” and the IC50 [1] was 39 µM and 43 µM and 55 µM. For the same compound, the IC50 [1, 10] was 35 µM and the MIC90 [1, 10] was about 100 µM (≈ 34.6 µg/mL).

Work on `Nc1ncnc2c1ncn2[C@H]1CC[C@@H](COS(=O)(=O)NC(=O)c2ccccc2O)O1` [salicyl-ddAMS] yielded an MIC90 [1, 10] of about 200 µM (≈ 86.9 µg/mL).

In the case of `Nc1ncnc2c1ncn2[C@@H]1O[C@H](COP(=O)(O)OP(=O)(O)OP(=O)(O)O)[C@@H](O)[C@H]1O` [ATP], the Km ([3]; read-out: Km ATP) is listed as 172 µM and the Km ([4]; read-out: Km ATP) is listed as 350 µM.

In the case of `Nc1ccc(C(=O)O)c(O)c1` [p-aminosalicylic acid, reference compound], the IC50 [1] is reported as 0.08 µM, the iron-deficient media selectivity [1] is reported as “do not exhibit iron-deficient media selectivity” and the IC50 [1, 10] is reported as 0.09 µM. The MIC90 [1, 10] was 0.78 µM (≈ 0.119 µg/mL).

Work on `CC(OS(=O)(=O)NC(=O)c1ccccc1O)[C@H]1O[C@@H](n2cnc3c(N)ncnc32)[C@H](O)[C@@H]1O` (mixture of isomers) [(RS)-5′-methyl-salicyl-AMS] yielded an IC50 ([2]; IC50) of 0.009 µM.

For `NNC(=O)c1ccncc1` [isoniazid, reference compound], the IC50 [1] was 0.11 µM and 0.08 µM and 0.1 µM, the MIC90 [1] was 0.16 µM (≈ 0.0219 µg/mL) and the IC50 [1, 10] was 0.12 µM. It also gave an MIC90 [1, 10] of 0.2 µM (≈ 0.0274 µg/mL).

`Cc1cccc(O)c1C(=O)NS(=O)(=O)OC[C@H]1O[C@@H](n2cnc3c(N)ncnc32)[C@H](O)[C@@H]1O` [6-methylsalicyl-AMS] showed an IC50 ([2]; IC50) of 0.023 µM.

`CC(=O)NS(=O)(=O)OC[C@H]1O[C@@H](n2cnc3c(N)ncnc32)[C@H](O)[C@@H]1O` [acetyl-AMS] gave an IC50 ([2]; IC50) of over 400 µM.

For `Nc1ncnc2c1ncn2[C@@H]1O[C@H](COS(=O)(=O)NC(=O)c2ccccc2)[C@@H](O)[C@H]1O` [benzoyl-AMS], the IC50 [5] was 500 µM, the MIC90 ([5]; Yersinia pestis) was over 500 µM and the IC50 ([2]; IC50) was 0.004 µM and 0.012 µM. The IC50 [1] was 105 µM and 133 µM and the MIC90 [1, 10] was over 200 µM.

In the case of `NS(=O)(=O)OC[C@H]1O[C@@H](n2ccc3ccccc32)[C@H](O)[C@@H]1O` [IRMS], the IC50 ([2]; IC50) is reported as over 20 µM, the IC50 [1, 10] is reported as over 200 µM and the MIC90 [1, 10] is reported as over 200 µM.

With `COc1ccccc1C(=O)NS(=O)(=O)OC[C@H]1O[C@@H](n2cnc3c(N)ncnc32)[C@H](O)[C@@H]1O` [2-methoxybenzoyl-AMS] the IC50 ([2]; IC50) was > 0.08 µM and 0.065 µM, the IC50 [1, 10] was over 200 µM and the MIC90 [1, 10] was over 200 µM.

In the case of `CC(=O)Oc1ccccc1C(=O)NS(=O)(=O)OC[C@H]1O[C@@H](n2ccc3ccccc32)[C@H](OC(C)=O)[C@@H]1OC(C)=O` [2′,2″,3′-triacetylsalicyl-IRMS], the MIC90 ([5]; Yersinia pestis) is reported as about 500 µM (≈ 287 µg/mL), the IC50 ([2]; IC50) is reported as 1.8 µM and the IC50 [1] is reported as 25 µM and 22 µM and 33 µM and 31 µM and 35 µM. It also gave an IC50 [1, 10] of 24 µM and an MIC90 [1, 10] of about 50 µM (≈ 28.7 µg/mL).

In the case of `[H]/N=C(/N)N[C@H]1[C@H](O)[C@@H](O)[C@H](O[C@@H]2O[C@@H](C)[C@](O)(C=O)[C@H]2O[C@@H]2O[C@@H](CO)[C@H](O)[C@@H](O)[C@@H]2NC)[C@@H](N/C(N)=N\[H])[C@@H]1O` [streptomycin], the MIC [6] is given as 0.4 to 1.7 µM and the MIC [7] is given as 2.6 to 6.9 µM.

`CC(=O)O[C@@H]1[C@H](OC(C)=O)[C@@H](COS(=O)(=O)NC(=O)c2ccccc2O)O[C@H]1n1ccc2ccccc21` [2′,3′-diacetylsalicyl-IRMS] showed an IC50 ([5]; Yersinia pestis) of over 200 µM, an MIC90 ([5]; Yersinia pestis) of over 200 µM and an IC50 ([2]; IC50) of 3.9 µM. For the same compound, the IC50 [1, 10] was over 200 µM and the MIC90 [1, 10] was over 200 µM.

In the case of `Nc1ncnc2c1ncn2[C@H]1C[C@H](O)[C@@H](COS(=O)(=O)NC(=O)c2ccccc2O)O1` [salicyl-dAMS], the IC50 ([2]; IC50) is reported as 0.008 µM and 0.014 µM.

In the case of `Nc1ncnc2c1ncn2[C@@H]1O[C@H](COS(=O)(=O)NC(=O)c2ccccc2O)[C@@H](O)[C@H]1O` [salicyl-AMS, 5′-O—[N-(salicyl)sulfamoyl]-adenosine], the activity on growth [5] is reported as “not active”, the IC50 ([5]; Yersinia pestis, read-out: IC50, bacterial growth in iron-limiting media) is reported as 25 to 52 µM and the IC50 ([5]; Yersinia pestis, read-out: IC50, growth inhibition) is reported as about 50 µM. For the same compound, the MIC ([5]; Yersinia pestis, read-out: MIC95, growth inhibition) was 96.7 µM (≈ 45.1 µg/mL), the IC50 ([5]; read-out: IC50, growth inhibition) was 51.2 ± 4.7 µM and the MBT production [8] was “virtually undetectable”. The IC50 ([2]; IC50) was 0.0145 µM and 0.009 µM, the IC50 ([2]; read-out: IC50) was 0.0479 µM and the IC50 [3] was 0.01 to 0.015 µM. For the same compound, the Kd [3] was at most 0.001 µM, the Ki [3] was 0.00035 ± 0.00027 µM and the “slope of IC50 versus YbtE concentration” value [3] was 0.43. The “slope of IC50 versus YbtE concentration, corrected” value [3] was 0.52, the IC50 ([3]; read-out: IC50, inhibition of adenylation activity) was 0.0147 ± 0.002 µM and the Ki ([3]; read-out: Ki (non-competitive with respect to salicylate)) was 0.00108 ± 0.00098 µM. The “increase of IC50, iron-supplemented vs iron-deficient” value [1] was 18 fold, the MIC ([1]; Mycobacterium tuberculosis, H37RV, read-out: MIC95, growth inhibition) was 268 µM (≈ 125 µg/mL) and the “isotopically stable in D2O” value [9] was at least 54 days.

In the case of `Nc1ncnc2c1nc1n2[C@@H]2O[C@H](COS(=O)(=O)NC(=O)CCCCC1)[C@@H](O)[C@H]2O` [cyclo-hexanoyl-AMS], the IC50 ([2]; IC50) is reported as over 40 µM.

In the case of `O=C(O)c1ccccc1O` [salicylate], the Km ([3]; read-out: Km salicylate) is given as 5.4 µM and the Km ([4]; read-out: Km salicylate) is given as 4.6 µM.

With `Nc1ncnc2c1ncn2[C@@H]1O[C@H](COS(=O)(=O)NC(=O)c2ccc(O)cc2)[C@@H](O)[C@H]1O` [4-hydroxybenzoyl-AMS] the IC50 ([2]; IC50) was > 0.08 µM and 6 µM, the IC50 [1] was 110 µM and the IC50 [1, 10] was over 200 µM. For the same compound, the MIC90 [1, 10] was over 200 µM.

`O=C(NS(=O)(=O)OC[C@H]1O[C@@H](n2ccc3ccccc32)[C@H](O)[C@@H]1O)c1ccccc1O` [salicyl-IRMS, β-indolyl 5′-O—(N-salicylsulfamoyl)ribose] showed an IC50 ([5]; Yersinia pestis) of over 500 µM, an MIC90 ([5]; Yersinia pestis) of over 500 µM and an IC50 ([2]; IC50) of 0.021 µM. For the same compound, the IC50 [1, 10] was over 200 µM and the MIC90 [1, 10] was over 200 µM.

In the case of `Nc1ncnc2c1nc1n2[C@@H]2O[C@H](COS(=O)(=O)NC(=O)CCCC#C1)[C@@H](O)[C@H]2O` [cyclo-hexynoyl-AMS], the IC50 ([2]; IC50) is reported as over 40 µM.
